The results in this text go back to US6391882B1, “4,5,6 and 7-indole and indoline derivatitives, their preparation and use” (H. Lundbeck A/S, priority 1998, dated 2002).

Structures can show the parent of a compound that is named as a salt.

`N#Cc1c[nH]c2cccc(N3CCN(CCc4c[nH]c5cc(Cl)ccc45)CC3)c12` (as salt: fumarate) [Compound 4o, 1-(2-(6-Chloro-1H-indol-3-yl)ethyl)-4-(3-cyano-1H-indol-4-yl)piperazine] gave a melting point of 234 to 236 °C.

The compound `Cc1ccc2c(CCN3CCN(c4cccc5[nH]ccc45)CC3)coc2c1` (as salt: oxalate) [Compound 4u, 1-(1H-Indol-4-yl)-4-(2-(6-methyl-3-benzofuranyl)ethyl)piperazine] yielded a melting point of 190 to 192 °C.

The compound `C#CCn1ccc2c(N3CCN(CCc4c[nH]c5ccc(F)cc45)CC3)cccc21` gave a melting point of 153 to 155 °C.

For the compound `Fc1ccc2occ(CCCCN3CCN(c4cccc5[nH]ccc45)CC3)c2c1` (as salt: hydrochloride) [Compound 1d, 1-(4-(5-Fluoro-3-benzofuranyl)-1-butyl)-4-(1H-indol-4-yl)piperazine], the melting point was 241 to 244 °C.

With `Fc1ccc2occ(CCCN3CCN(c4cccc5[nH]ccc45)CC3)c2c1` (as salt: hydrochloride) [Compound 1h, 1-(3-(5-Fluoro-3-benzofuranyl)-1-propyl)-4-(1H-indol-4-yl)piperazine], the melting point was 230 to 234 °C.

Compound `Cc1ccc2occ(CCN3CCN(c4cccc5[nH]ccc45)CC3)c2c1` (as salt: hydrochloride) [Compound 4q, 1-(1H-Indol-4-yl)-4-(2-(5-methyl-3-benzofuranyl)ethyl)piperazine] had a melting point of 258 to 260 °C.

Turning to `Cc1cccc2occ(CCN3CCN(c4cccc5[nH]ccc45)CC3)c12` (as salt: oxalate) [Compound 4r, 1-(1H-Indol-4-yl)-4-(2-(4-methyl-3-benzofuranyl)ethyl)piperazine], the melting point was in the range of 204 to 206 °C.

For the compound `Fc1ccc2occ(CN3CCN(c4cccc5[nH]ccc45)CC3)c2c1` (as salt: hydrochloride) [Compound 4l, 1-(5-Fluoro-3-benzofuranylmethyl)-4-(1H-indol-4-4-yl)piperazine], the melting point was in the range of 238 to 240 °C.

For the compound `c1ccc2c(CCCN3CCN(c4cccc5[nH]ccc45)CC3)c[nH]c2c1` (as salt: oxalate) [Compound 1f, 1-(3-(1H-indol-3-yl)-1-propyl)-4-(1H-indol-4-yl)piperazine], the melting point lay in the range of 198 to 204 °C.

Consider `N#Cc1c[nH]c2cccc(N3CCN(CCc4coc5ccc(F)cc45)CC3)c12` (as salt: fumarate) [Compound 4n, 1-(3-Cyano-1H-indol-4-yl)-4-(2-(5-fluoro-3-benzofuranyl)ethyl)piperazine], for which the melting point lay in the range of 235 to 237 °C.

Compound `c1cc(N2CCN(Cc3coc4ccccc34)CC2)c2cc[nH]c2c1` (as salt: oxalate) [Compound 1b, 1-(3-Benzofuranylmethyl)-4-(1H-indol-4-yl)piperazine] returned a melting point of 226 to 228 °C.

Consider `Clc1ccc2c(CCN3CCN(c4cccc5[nH]ccc45)CC3)n[nH]c2c1` (as salt: oxalate) [Compound 1k, 1-(2-(6-Chloro-3-indazolyl)ethyl)-4-(1H-indol-4-yl)piperazine], for which the melting point lay within 255 to 258 °C.

For `COC(=O)c1cc(N2CCN(CCc3c[nH]c4cc(Cl)ccc34)CC2)c2cc[nH]c2c1` (as salt: oxalate) [Compound 4g, 1-(2-(6-Chloro-1H-indol-3-yl)ethyl)-4-(6-methoxycarbonyl-1-H-indol-4-yl)piperazine], the melting point is 228 to 230 °C.

`Fc1ccc2occ(CCCN3CC=C(c4cccc5[nH]ccc45)CC3)c2c1` (as salt: fumarate) [Compound 4s, 1-(3-(5-Fluoro-3-benzofuranyl)-1-propyl)-4-(1H-indol-4-yl)-1,2,3,6-tetrahydropyridine] came in with a melting point of 183 to 185 °C.

`N#Cc1c[nH]c2cccc(N3CCN(CCc4c[nH]c5ccccc45)CC3)c12` (as salt: fumarate) [Compound 4m, 1-(3-Cyano-1H-indol-4-yl)-4-(2-(1H-indol-3-yl)ethyl)piperazine] displayed a melting point above 250 °C.

As for `Clc1ccc2c(CCN3CC=C(c4cccc5[nH]ccc45)CC3)c[nH]c2c1` (as salt: fumarate) [Compound 2g, 1-(2-(6-Chloro-1H-indol-3-yl)ethyl)-4-(1H-indol-4-yl)-1,2,3,6-tetrahydropyridine], the melting point lay in the range of 225 to 226 °C.

As for `Fc1ccc2[nH]cc(CCN3CC=C(c4cccc5[nH]ccc45)CC3)c2c1` (as salt: fumarate) [Compound 2h, 1-(2-(5-Fluoro-1H-indol-3-yl)ethyl)-4-(1H-indol-4-yl)-1,2,3,6-tetrahydropyridine], the melting point fell in the range of 204 to 206 °C.

Regarding `c1cc(N2CCN(CCc3n[nH]c4ccccc34)CC2)c2cc[nH]c2c1` (as salt: oxalate) [Compound 1j, 1-(2-(3-Indazolyl)ethyl)-4-(1H-indol-4-yl)piperazine], the melting point lay within 149 to 151 °C.

For the compound `c1ccc2c(CCCCN3CCN(c4cccc5[nH]ccc45)CC3)c[nH]c2c1` (as salt: oxalate) [Compound 1g, 1-(4-(1H-indol-3-yl)-1-butyl)-4-(1H-indol-4yl)piperazine], the melting point is 189 to 193 °C.

`N#Cc1cccc2c(CCN3CCN(c4cccc5[nH]ccc45)CC3)c[nH]c12` (as salt: oxalate) [Compound 1l, 1-(2-(7-Cyano-1H-indol-3-yl)ethyl)-4-(1H-indol-4-yl)piperazine] had a melting point of 241 to 243 °C.

Regarding `Brc1ccc2[nH]cc(CCN3CCN(c4ccc5[nH]ccc5c4)CC3)c2c1` (as salt: fumarate) [Compound 2t, 1-(2-(5-Bromo-1H-indol-3-yl)ethyl)-4-(1H-indol-5-yl)piperazine], the melting point is 231 to 233 °C.

As to `Clc1ccc2[nH]cc(CCN3CCN(c4ccc5[nH]ccc5c4)CC3)c2c1` (as salt: fumarate) [Compound 2u, 1-(2-(5-Chloro-1H-indol-3-yl)ethyl)-4-(1H-indol-5-yl)piperazine], the melting point is 232 to 234 °C.

On to `COC(=O)c1cc(N2CCN(CCc3coc4ccc(F)cc34)CC2)c2cc[nH]c2c1` (as salt: oxalate) [Compound 4h, 1-(2-(5-Fluoro-3-benzofuranyl)ethyl)-4-(6-methoxycarbonyl-1H-indol-4-yl)piperazine], for which the melting point was 227 to 228 °C.

Take `N#Cc1c[nH]c2cccc(N3CCN(CCc4coc5ccccc45)CC3)c12` (as salt: oxalate) [Compound 4p, 1-(2-(3-Benzofuranyl)ethyl)-4-(3-cyano-1H-indol-4-yl)piperazine]: the melting point was in the range of 221 to 223 °C.

In turn, `COC(=O)c1cc(N2CCN(CCc3c[nH]c4ccccc34)CC2)c2cc[nH]c2c1` (as salt: oxalate) [Compound 4f, 1-(2-(1H-indol-3-yl)ethyl)-4-(6-methoxycarbonyl-1H-indol-4-yl)piperazine] displayed a melting point of 213 to 216 °C.

`c1ccc(Cn2ccc3c(N4CCN(CCc5c[nH]c6ccccc56)CC4)cccc32)cc1` (as salt: fumarate) [Compound 2s, 1-(1-Benzyl-1H-indol-4-yl)-4-(2-(1H-indol-3-yl)ethyl)piperazine]: the melting point lay within 188 to 190 °C.

Compound `Fc1ccc2[nH]cc(CCN3CCN(c4cccc5[nH]ccc45)CC3)c2c1` (as salt: fumarate) [Compound 2c, 1-(2-(5-Fluoro-1H-indol-3-yl)ethyl)-4-(1H-indol-4-yl)piperazine] yielded a melting point of 212 to 215 °C.

`Cc1oc2c(F)c(F)c(F)c(F)c2c1CCN1CCN(c2cccc3[nH]ccc23)CC1` (as salt: hydrochloride) [Compound 1i, 1-(2-(2-Methyl-4,5,6,7-tetrafluoro-3-benzofuranyl)ethyl)-4-(1H-indol-4-yl)piperaziine] came in with a melting point of 181 to 187 °C.

For `Fc1ccc2[nH]cc(CCN3CCN(c4cccc5c4ccn5Cc4ccccc4)CC3)c2c1` (as salt: fumarate) [Compound 2m, 1-(1-Benzyl-1H-indol-4-yl)-4-(2-(5-fluoro-1H-indol-3-yl)ethyl)piperazine], the melting point fell in the range of 178 to 180 °C.

The compound `c1ccc2c(CCN3CCN(c4cccc5[nH]ccc45)CC3)c[nH]c2c1` (as salt: oxalate) [Compound 1e, 1-(2-(1H-indol-3-yl)ethyl)-4-(1H-indol-4-yl)piperazine] showed a melting point of 167 to 169 °C.

Take `Clc1ccc2occ(CCN3CCN(c4cccc5[nH]ccc45)CC3)c2c1` (as salt: oxalate) [Compound 4t, 1-(2-(5-Chloro-3-benzofuranyl)ethyl)-4-(1H-indol-4-yl)piperazine]: the melting point was in the range of 200 to 202 °C.

The compound `Fc1ccc2occ(CCN3CCN(c4cccc5[nH]ccc45)CC3)c2c1` (as salt: oxalate) [Compound 1c, 1-(2-(5-Fluoro-3-benzofuranyl)ethyl)-4-(1H-indol-4-yl)piperazine] yielded a melting point of 196 to 197 °C.

For the compound `C#CCn1ccc2c(N3CCN(CCc4c[nH]c5ccccc45)CC3)cccc21` (as salt: fumarate), the melting point was in the range of 193 to 195 °C.

Compound `C#CCn1ccc2c(N3CCN(CCc4c[nH]c5cc(Cl)ccc45)CC3)cccc21` gave a melting point of 197 to 199 °C.

As to `Clc1cccc2c(CCN3CCN(c4cccc5[nH]ccc45)CC3)coc12` (as salt: oxalate) [Compound 4v, 1-(2-(7-Chloro-3-benzofuranyl)ethyl)-4-(1H-indol-4-yl)piperazine], the melting point is 216 to 218 °C.

Take `N#Cc1c[nH]c2cccc(N3CCN(CCc4c[nH]c5cccc(Cl)c45)CC3)c12` (as salt: fumarate) [Compound 4x, 1-(2-(4-Chloro-1H-indol-3-yl)ethyl)-4-(3-cyano-1H-indol-4-yl)piperazine]: the melting point was above 250 °C.

With `C=CCn1ccc2c(N3CCN(CCc4c[nH]c5ccc(F)cc45)CC3)cccc21` (as salt: fumarate), the melting point was in the range of 210 to 212 °C.

On to `C#CCn1ccc2c(N3CCN(CCc4c[nH]c5ccc(Br)cc45)CC3)cccc21`, for which the melting point was in the range of 154 to 156 °C.

`Clc1cccc2[nH]cc(CCN3CCN(c4cccc5[nH]ccc45)CC3)c12` (as salt: oxalate) [Compound 2b, 1-(2-(4-Chloro-1H-indol-3-yl)ethyl)-4-(1H-indol-4-yl)piperazine] registered a melting point of 245 to 247 °C.

What is called melting point is the temperature of the solid-liquid transition.
